Test results as given in ChEMBL document CHEMBL5365482, “Rational Design of Sulfonyl-γ-AApeptides as Highly Potent HIV-1 Fusion Inhibitors with Broad-Spectrum Activity” (J Med Chem, 2023).

Legend:
[1] = tested on: Human immunodeficiency virus 1; assay: Antiviral activity against HIV1 IIIB infected in human MT2 cells assessed as inhibition of viral growth incubated for 30 mins by ELISA assay; format: functional, organism-based; conditions: Human immunodeficiency virus 1, IIIB, MT2, 0.5 h
[2] = Cytotoxicity against human MT2 cells assessed as inhibition of cell growth measured after 3 days by CCK8 assay; format: toxicity, cell-based; conditions: time 3 day
[3] = Selectivity index, ratio of CC50 for human MT2 cells to IC50 for HIV1 IIIB infected in human MT2 cells; format: toxicity, cell-based; conditions: read-out: Ratio CC50/IC50
[4] = Stability of compound in ammonium bicarbonate buffer at pH 7.8 at 0.1 mg/ml incubated for 24 hrs under at 37 degreeC in presence of pronase by HPLC analysis; format: physicochemical; conditions: pH 7.8, 24 h
[5] = tested on: Human immunodeficiency virus 1; assay: Antiviral activity against HIV1 CRF02_AG Clone 278 clinical isolate infected in human TZM-bl cells assessed as inhibition of viral growth incubated for 48 hrs by luciferase based analysis; format: functional, organism-based; conditions: Human immunodeficiency virus 1, CRF02_AG Clone 278, TZM-bl
[6] = tested on: Human immunodeficiency virus 1; assay: Antiviral activity against HIV1 QD435.100MENV.E1 clinical isolate infected in human TZM-bl cells assessed as inhibition of viral growth incubated for 48 hrs by luciferase based analysis; format: functional, organism-based; conditions: Human immunodeficiency virus 1, QD435.100MENV.E1, TZM-bl
[7] = tested on: Human immunodeficiency virus 1; assay: Antiviral activity against HIV1 CRF02_AG Clone 33 clinical isolate infected in human TZM-bl cells assessed as inhibition of viral growth incubated for 48 hrs by luciferase based analysis; format: functional, organism-based; conditions: Human immunodeficiency virus 1, CRF02_AG Clone 33, TZM-bl
[8] = tested on: Human immunodeficiency virus 1; assay: Antiviral activity against HIV1 Q259env.w6 clinical isolate infected in human TZM-bl cells assessed as inhibition of viral growth incubated for 48 hrs by luciferase based analysis; format: functional, organism-based; conditions: Human immunodeficiency virus 1, Q259env.w6, TZM-bl
[9] = tested on: Human immunodeficiency virus 1; assay: Antiviral activity against HIV1 QA013.701.ENV.M12 clinical isolate infected in human TZM-bl cells assessed as inhibition of viral growth incubated for 48 hrs by luciferase based analysis; format: functional, organism-based; conditions: Human immunodeficiency virus 1, QA013.701.ENV.M12, TZM-bl
[10] = tested on: Human immunodeficiency virus 1; assay: Antiviral activity against HIV1 X4 […] MN/H9 (84US_MNp) clinical isolate infected in human MT2 cells assessed as inhibition of viral growth incubated for 30 mins by ELISA assay; format: functional, organism-based; conditions: Human immunodeficiency virus 1, X4 […] MN/H9 (84US_MNp), MT2, 0.5 h
[11] = tested on: Human immunodeficiency virus 1; assay: Antiviral activity against HIV1 R5 […] US4/GS 007 (91US_4) clinical isolate infected in human CEMx174 5.25M7 cells assessed as inhibition of viral growth incubated for 30 mins by ELISA assay; format: functional, organism-based; conditions: Human immunodeficiency virus 1, R5 […] US4/GS 007 (91US_4), CEMx174 5.25M7, 0.5 h
[12] = molecular target: T1, Envelope glycoprotein gp160 (Human immunodeficiency virus 1, UniProt Q72502); assay: Binding affinity to HIV1 GP41 using GP41 NHR derived N36 peptide assessed as binding constant by fluorescence polarization assay
T1 sequence (Q72502 whole entry): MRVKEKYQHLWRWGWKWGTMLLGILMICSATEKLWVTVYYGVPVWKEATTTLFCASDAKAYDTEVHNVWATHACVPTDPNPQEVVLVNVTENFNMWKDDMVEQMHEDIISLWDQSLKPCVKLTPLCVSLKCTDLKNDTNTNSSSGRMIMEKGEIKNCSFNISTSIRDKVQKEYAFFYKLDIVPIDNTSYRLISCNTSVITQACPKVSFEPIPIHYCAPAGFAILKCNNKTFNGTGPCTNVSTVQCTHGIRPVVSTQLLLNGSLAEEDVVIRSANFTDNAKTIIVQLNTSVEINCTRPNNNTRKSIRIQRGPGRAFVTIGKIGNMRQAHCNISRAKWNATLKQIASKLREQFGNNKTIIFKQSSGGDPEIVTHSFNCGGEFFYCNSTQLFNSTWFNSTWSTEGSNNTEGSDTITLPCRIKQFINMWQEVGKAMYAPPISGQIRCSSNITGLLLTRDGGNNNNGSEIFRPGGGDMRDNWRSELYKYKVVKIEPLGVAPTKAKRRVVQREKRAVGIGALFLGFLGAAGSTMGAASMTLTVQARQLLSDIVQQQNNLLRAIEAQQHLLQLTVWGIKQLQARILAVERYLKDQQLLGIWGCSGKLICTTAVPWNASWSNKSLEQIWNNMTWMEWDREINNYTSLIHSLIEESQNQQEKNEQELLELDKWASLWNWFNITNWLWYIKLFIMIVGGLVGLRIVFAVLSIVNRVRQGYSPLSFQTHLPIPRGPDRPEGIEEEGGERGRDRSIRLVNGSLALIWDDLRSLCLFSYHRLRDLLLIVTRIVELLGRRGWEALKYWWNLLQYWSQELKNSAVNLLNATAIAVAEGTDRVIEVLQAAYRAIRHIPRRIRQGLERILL

[13] = molecular target: T1, Envelope glycoprotein gp160; assay: Binding affinity to HIV1 GP41 using GP41 NHR derived N36 peptide assessed as binding constant in presence of C34 by fluorescence polarization assay
[14] = Apparent permeability of the compound across gastrointestinal tract in PBS buffer at pH 5 at 50 uM by PAMPA analysis; format: ADME, tissue-based; conditions: for Papp at 50 µM: PAMPA, pH 5
[15] = Apparent permeability of the compound across gastrointestinal tract in PBS buffer at pH 6.2 at 50 uM by PAMPA analysis; format: ADME, tissue-based; conditions: for Papp at 50 µM: PAMPA, pH 6.2
[16] = Apparent permeability of the compound across gastrointestinal tract in PBS buffer at pH 7.4 at 50 uM by PAMPA analysis; format: ADME, tissue-based
[17] = Apparent permeability of the compound across blood brain barrier in PBS buffer at pH 7.4 at 15 uM by PAMPA analysis; format: ADME, tissue-based
[18] = Apparent permeability of the compound across blood brain barrier in PBS buffer at pH 7.4 at 25 uM by PAMPA analysis; format: ADME, tissue-based
[19] = Apparent permeability of the compound across gastrointestinal tract in PBS buffer at pH 5 at 200 uM by PAMPA analysis; format: ADME, tissue-based
[20] = Apparent permeability of the compound across gastrointestinal tract in PBS buffer at pH 6.2 at 200 uM by PAMPA analysis; format: ADME, tissue-based
[21] = Apparent permeability of the compound across gastrointestinal tract in PBS buffer at pH 7.4 at 200 uM by PAMPA analysis; format: ADME, tissue-based
in vitro = conditions: PAMPA, pH 7.4
Description: Apparent permeability of the compound across blood brain barrier in PBS buffer at pH 7.4 at 250 uM by PAMPA analysis

Papp at 50 µM [16]	Molecule	IC50 [1]	CC50 at 72 h [2]	selectivity ratio [3]	IC50 [5]	IC50 [6]	IC50 [7]	IC50 [8]	IC50 [9]	IC50 [10]	IC50 [11]	further results
	CC[C@@H](C)[C@@H](CN(CC(=O)N[C@@H](CCC(=O)O)CN(CC(=O)N[C@@H](CC(C)C)CN(CC(N)=O)S(=O)(=O)CC(C)C)S(=O)(=O)c1ccc(C(=O)O)cc1)S(=O)(=O)CC(C)C)NC(=O)CN(C[C@H](CCCCN)NC(=O)CN(C[C@H](Cc1ccc(O)cc1)NC(=O)CN(C[C@H](CCC(=O)O)NC(=O)CN(C[C@@H](NC(=O)CN(C[C@H](CCCCN)NC(=O)CN(C[C@H](Cc1c[nH]c2ccccc12)NC(=O)CN(C[C@H](CCC(=O)O)NC(=O)CN(C[C@H](Cc1c[nH]c2ccccc12)NC(=O)CN(C[C@H](CCSC)NC(C)=O)S(=O)(=O)c1ccc(OC)cc1)S(=O)(=O)CC(C)C)S(=O)(=O)c1ccc(C(=O)O)cc1)S(=O)(=O)CC(C)C)S(=O)(=O)CCN)[C@H](C)CC)S(=O)(=O)CC(C)C)S(=O)(=O)c1ccc(C(=O)O)cc1)S(=O)(=O)CC(C)C)S(=O)(=O)CCN	4000 nM	> 40000 nM	> 10								Stability [4]: Stable
520 ×10⁻⁶ cm/s	CCCCCCCCCCCCCCCCCC(=O)NCCCC[C@H](NC(=O)CN(C[C@H](CC(C)C)NC(=O)CN(C[C@H](CCC(=O)O)NC(=O)CN(C[C@@H](NC(=O)CN(C[C@H](CCCCN)NC(=O)CN(C[C@H](Cc1ccc(O)cc1)NC(=O)CN(C[C@H](CCC(=O)O)NC(=O)CN(C[C@@H](NC(=O)CN(C[C@H](CCCCN)NC(=O)CN(C[C@H](Cc1c[nH]c2ccccc12)NC(=O)CN(C[C@H](CCC(=O)O)NC(=O)CN(C[C@H](Cc1c[nH]c2ccccc12)NC(=O)CN(C[C@H](CCSC)NC(C)=O)S(=O)(=O)c1ccc(OC)cc1)S(=O)(=O)CC(C)C)S(=O)(=O)c1ccc(C(=O)O)cc1)S(=O)(=O)CC(C)C)S(=O)(=O)CCN)[C@H](C)CC)S(=O)(=O)CC(C)C)S(=O)(=O)c1ccc(C(=O)O)cc1)S(=O)(=O)CC(C)C)S(=O)(=O)CCN)[C@H](C)CC)S(=O)(=O)CC(C)C)S(=O)(=O)c1ccc(C(=O)O)cc1)S(=O)(=O)CC(C)C)C(N)=O	180 nM	19300 nM	106	60.4 nM	85.3 nM	64.7 nM	84.4 nM	61 nM	940 nM	88.8 nM	Kd [12]: 670 nM; Kd [13]: > 46000 nM; Papp at 50 µM [14]: 610 ×10⁻⁶ cm/s; Papp at 50 µM [15]: 522 ×10⁻⁶ cm/s; Papp at 15 µM [17]: 256 ×10⁻⁶ cm/s
	CC[C@@H](C)[C@@H](CN(CC(=O)N[C@@H](CCC(=O)O)CN(CC(=O)N[C@@H](CC(C)C)CN(CC(N)=O)S(=O)(=O)CC(C)C)S(=O)(=O)c1ccc(C(=O)O)cc1)S(=O)(=O)CC(C)C)NC(=O)CN(C[C@H](CCCCN)NC(=O)CN(C[C@H](Cc1ccc(O)cc1)NC(=O)CN(C[C@H](CCC(=O)O)NC(=O)CN(C[C@@H](NC(=O)CN(C[C@H](CCCCN)NC(=O)CN(C[C@H](Cc1c[nH]c2ccccc12)NC(=O)CN(C[C@H](CCC(=O)O)NC(=O)CN(C[C@H](Cc1c[nH]c2ccccc12)NC(=O)CN(C[C@H](CCSC)NC(C)=O)S(=O)(=O)CC(C)C)S(=O)(=O)CC(C)C)S(=O)(=O)c1ccc(C(=O)O)cc1)S(=O)(=O)CC(C)C)S(=O)(=O)CCN)[C@H](C)CC)S(=O)(=O)CC(C)C)S(=O)(=O)c1ccc(C(=O)O)cc1)S(=O)(=O)CC(C)C)S(=O)(=O)CCN	30000 nM	> 40000 nM	> 1.3								Stability [4]: Stable
390 ×10⁻⁶ cm/s	CCCCCCCCCCCCCCCCCC(=O)NCCCC[C@H](NC(=O)CN(C[C@H](CC(C)C)NC(=O)CN(C[C@H](CCC(=O)O)NC(=O)CN(C[C@@H](NC(=O)CN(C[C@H](CCCCN)NC(=O)CN(C[C@H](Cc1ccc(O)cc1)NC(=O)CN(C[C@H](CCC(=O)O)NC(=O)CN(C[C@@H](NC(=O)CN(C[C@H](CCCCN)NC(=O)CN(C[C@H](Cc1c[nH]c2ccccc12)NC(=O)CN(C[C@H](CCC(=O)O)NC(=O)CN(C[C@H](Cc1c[nH]c2ccccc12)NC(=O)CN(C[C@H](CCSC)NC(C)=O)S(=O)(=O)CC(C)C)S(=O)(=O)CC(C)C)S(=O)(=O)c1ccc(C(=O)O)cc1)S(=O)(=O)CC(C)C)S(=O)(=O)CCN)[C@H](C)CC)S(=O)(=O)CC(C)C)S(=O)(=O)c1ccc(C(=O)O)cc1)S(=O)(=O)CC(C)C)S(=O)(=O)CCN)[C@H](C)CC)S(=O)(=O)CC(C)C)S(=O)(=O)c1ccc(C(=O)O)cc1)S(=O)(=O)CC(C)C)C(N)=O	980 nM	> 40000 nM	> 41	89 nM	84.9 nM	124 nM	154 nM	46.7 nM	81.3 nM	87.8 nM	Papp at 50 µM [14]: 602 ×10⁻⁶ cm/s; Papp at 50 µM [15]: 617 ×10⁻⁶ cm/s; Papp at 25 µM [18]: 234 ×10⁻⁶ cm/s
	Cc1cc(=O)n(-c2ccccc2)n1C [ANTIPYRINE]											Papp at 200 µM [19]: < 1 ×10⁻⁶ cm/s; Papp at 200 µM [20]: < 1 ×10⁻⁶ cm/s
152 ×10⁻⁶ cm/s	NC(=O)N1c2ccccc2C=Cc2ccccc21 [CARBAMAZEPINE]											Papp ([14]; pampa, pH 5, 50 µM): 134.41 10^-6 cm/s; Papp ([15]; pampa, pH 6.2, 50 µM): 141.28 10^-6 cm/s; Papp at 200 µM [21]: < 1 ×10⁻⁶ cm/s
	Cn1c(=O)c2[nH]cnc2n(C)c1=O.O [THEOPHYLLINE]											Papp at 250 µM (in vitro): < 10 ×10⁻⁶ cm/s
	enfuvirtide				28.4 nM	72 nM	28.4 nM	50.8 nM	6.5 nM	3 nM	15.7 nM	
